Consider four compounds from BindingDB's records for doi:10.1021/jm00100a013 (Medical University of South Carolina, 1992).

For this assay, the target named is Folylpolyglutamate synthase (Sus scrofa). The assay is described as follows: Inhibitory activity against hog liver Folyl polyglutamate synthetase (FPGS).
One may read the Ki as a measure of affinity in units of concentration, obtained from inhibition or displacement. A high value points to weaker binding. With `NCCCC(NC(=O)c1ccc(NCc2ccc3nc(N)[nH]c(=O)c3c2C(F)(F)F)cc1)C(=O)O` (centres undefined), the Ki is 8.8 nM.
In turn, `NCCCC(NC(=O)c1ccc(CNc2ccc3nc(N)[nH]c(=O)c3c2Cl)cc1)C(=O)O` (centres undefined) showed an inhibitory constant (Ki) of 500 nM. Compared with the last compound, the Ki is about 57-fold higher.
`NCCCC(NC(=O)c1ccc(CNc2ccc3nc(N)[nH]c(=O)c3c2C(F)(F)F)cc1)C(=O)O` (centres undefined): the Ki worked out at 11 nM.
The same measure for `NCCCC(NC(=O)c1ccc(CNc2ccc3nc(N)[nH]c(=O)c3c2F)cc1)C(=O)O` (centres undefined): 900 nM.
